Assay results: the supplement of paper PMC13380429

Assays:
Conditions in all cases: 72 h
HepG2 [1] = assay: cell viability relative to DMSO; higher = less toxic
Vero E6 [2] = assay: as above
Caco-2 [3] = assay: as above
Calu-3 [4] = assay: as above
U2OS [5] = assay: as above
HepG2 [6] = assay: relative viability EC50 (midpoint between 100% and the lowest measured viability); higher = less toxic
Vero E6 [7] = assay: as above
Caco-2 [8] = assay: as above
Calu-3 [9] = assay: as above
U2OS [10] = assay: as above
HepG2 [11] = assay: drug sensitivity score (DSS) for viability; higher = more toxic; extreme values may be limits of the assay
Vero E6 [12] = assay: as above
Caco-2 [13] = assay: as above
Calu-3 [14] = assay: as above
U2OS [15] = assay: as above

Row | SMILES | cell viability (HepG2 [1]; 1 nM) [%] | cell viability (HepG2 [1]; 10 nM) [%] | cell viability (HepG2 [1]; 100 nM) [%] | cell viability (HepG2 [1]; 1000 nM) [%] | cell viability (HepG2 [1]; 10000 nM) [%] | cell viability (Vero E6 [2]; 1 nM) [%] | cell viability (Vero E6 [2]; 10 nM) [%] | cell viability (Vero E6 [2]; 100 nM) [%] | cell viability (Vero E6 [2]; 1000 nM) [%] | cell viability (Vero E6 [2]; 10000 nM) [%] | cell viability (Caco-2 [3]; 1 nM) [%] | cell viability (Caco-2 [3]; 10 nM) [%] | cell viability (Caco-2 [3]; 100 nM) [%] | cell viability (Caco-2 [3]; 1000 nM) [%] | cell viability (Caco-2 [3]; 10000 nM) [%] | cell viability (Calu-3 [4]; 1 nM) [%] | cell viability (Calu-3 [4]; 10 nM) [%] | cell viability (Calu-3 [4]; 100 nM) [%] | cell viability (Calu-3 [4]; 1000 nM) [%] | cell viability (Calu-3 [4]; 10000 nM) [%] | cell viability (U2OS [5]; 1 nM) [%] | cell viability (U2OS [5]; 10 nM) [%] | cell viability (U2OS [5]; 100 nM) [%] | cell viability (U2OS [5]; 1000 nM) [%] | cell viability (U2OS [5]; 10000 nM) [%] | relative viability EC50 (HepG2 [6]) [µM] | relative viability EC50 (Vero E6 [7]) [µM] | relative viability EC50 (Caco-2 [8]) [µM] | relative viability EC50 (Calu-3 [9]) [µM] | relative viability EC50 (U2OS [10]) [µM] | drug sensitivity score (HepG2 [11]) | drug sensitivity score (Vero E6 [12]) | drug sensitivity score (Caco-2 [13]) | drug sensitivity score (Calu-3 [14]) | drug sensitivity score (U2OS [15])
1 | CC(=O)O[C@H]1Cc2ccccc2N(C(N)=O)c2ccccc21 [eslicarbazepine-acetate] | 90.4 | 85.9 | 95.9 | 93.8 | 101 | 96.9 | 99.7 | 96.3 | 98.9 | 98.2 | 104 | 99.9 | 91.3 | 95.5 | 89 | 98.9 | 98.4 | 108 | 102 | 111 | 97.5 | 93.6 | 95.2 | 96.7 | 101 | > 10 | > 10 | > 10 | > 10 | > 10 | 0 | 0 | 0 | 0 | 0
2 | CC(O)(P(=O)(O)O)P(=O)(O)O [etidronic-acid] | 92.3 | 105 | 105 | 100 | 94.6 | 92.7 | 91.1 | 96.1 | 90.1 | 95.8 | 103 | 91.5 | 103 | 98.2 | 104 | 93.2 | 103 | 109 | 92.1 | 105 | 102 | 97 | 98.6 | 103 | 102 | > 10 | > 10 | > 10 | > 10 | > 10 | 0 | 0 | 0 | 0 | 0
3 | O=S1(=O)c2cccc3cccc(c23)N1CCCN1CCN(c2ccc(F)cc2)CC1 [fananserin] | 96.4 | 106 | 107 | 94 | 95.4 | 96.8 | 96.9 | 98.1 | 91.8 | 94.6 | 105 | 102 | 100 | 100 | 96.7 | 108 | 89.5 | 94.2 | 111 | 104 | 101 | 102 | 100 | 103 | 99.3 | > 10 | > 10 | > 10 | > 10 | > 10 | 0 | 0 | 0 | 0 | 0
4 | O=c1c(O)c(-c2ccc(O)c(O)c2)oc2cc(O)ccc12 [fisetin] | 95 | 111 | 104 | 107 | 105 | 93.3 | 97.9 | 91.3 | 97.1 | 103 | 96.8 | 104 | 95.3 | 96.8 | 92.8 | 93.2 | 90.1 | 95.3 | 101 | 83.2 | 97.5 | 97.6 | 102 | 94.8 | 98 | > 10 | > 10 | > 10 | > 10 | > 10 | 0 | 0 | 0 | 0.3 | 0
5 | Cc1c(-c2ccccc2)oc2c(C(=O)OCCN3CCCCC3)cccc2c1=O [flavoxate] | 102 | 99.2 | 104 | 98.3 | 96.1 | 98.1 | 91.7 | 96.2 | 94.1 | 107 | 89.1 | 91.5 | 92.9 | 97.1 | 108 | 94.9 | 91.9 | 91.7 | 105 | 110 | 97.3 | 101 | 93 | 104 | 98.8 | > 10 | > 10 | > 10 | > 10 | > 10 | 0 | 0 | 0 | 0 | 0
